For test [1], the system named is Streptococcus pyogenes C203. Kind of test: MIC, standard agar-dilution assay (Table II). The format is cell-based. Details: unit not given here. The protocol:
(§1) The MIC's in Table II were determined by standard agar-dilution assays. The MIC's in Table III were obtained using a conventional broth-dilution microtiter test.

The subject of test [2] is Staphylococcus epidermidis EPI2. Kind of test: MIC, standard agar-dilution assay (Table II). The format is cell-based. Details: unit not given here. The protocol: as §1
Test [3] concerns Haemophilus influenzae R252. Kind of test: MIC, standard agar-dilution assay (Table II). In kind it is cell-based. Details: unit not given here. Conditions: Haemophilus influenzae R252, ampicillin-resistant strain. The protocol: as §1
For test [4], the system named is Haemophilus influenzae Holt. Kind of test: MIC, standard agar-dilution assay (Table II). Conditions: ampicillin-sensitive strain. The format is cell-based. Details: unit not given here. Here is the method: as §1
Test [5] relates to Staphylococcus epidermidis EPI1. Kind of test: MIC, standard agar-dilution assay (Table II). In kind it is cell-based. Also noted: unit not given here. Here is the method: as §1
Test [6] relates to Staphylococcus aureus V41. Put plainly: MIC, standard agar-dilution assay (Table II). Also noted: unit not given here. The format is cell-based. The note with it: Staphylococcus aureus V41, penicillin-resistant strain. Here is the method: as §1
Test [7] concerns Staphylococcus aureus X1.1. Kind of test: MIC, standard agar-dilution assay (Table II). In kind it is cell-based. Also noted: unit not given here. The protocol: as §1
The test system of test [8] is Streptococcus pneumoniae Park I. Kind of test: MIC, standard agar-dilution assay (Table II). In kind it is cell-based. Also noted: unit not given here. The protocol:
as §1

For test [9], the system named is Staphylococcus aureus X400. Kind of test: MIC, standard agar-dilution assay (Table II). Details: unit not given here. The format is cell-based. Conditions: Staphylococcus aureus X400, methicillin-resistant strain. Here is the method:
as §1

The subject of test [10] is Staphylococcus aureus S13E. Put plainly: MIC, standard agar-dilution assay (Table II). In kind it is cell-based. Also noted: unit not given here. Here is the method:
as §1

For test [11], the system named is Streptococcus Group D 9960. Put plainly: MIC, standard agar-dilution assay (Table II). In kind it is cell-based. Also noted: unit not given here. Here is the method:
as §1

In test [12] the test system is Streptococcus Group D X66. Kind of test: MIC, standard agar-dilution assay (Table II). In kind it is cell-based. Also noted: unit not given here. The protocol:
as §1

The subject of test [13] is Streptococcus sp. 80. Kind of test: MIC, broth-dilution microtiter test (Table III). In kind it is cell-based. Details: unit not given here. The protocol:
as §1

For test [14], the system named is Pasteurella multocida 60A. Kind of test: MIC, broth-dilution microtiter test (Table III). The format is cell-based. Details: unit not given here. Conditions: avian isolate. The protocol:
as §1

For test [15], the system named is Staphylococcus aureus. Kind of test: MIC, broth-dilution microtiter test (Table III). In kind it is cell-based. Also noted: unit not given here. Here is the method: as §1
For test [16], the system named is Mycoplasma hyorhinis. Put plainly: MIC, broth-dilution microtiter test (Table III). Details: unit not given here. The format is cell-based. Here is the method:
as §1

For test [17], the system named is Pasteurella multocida 17E. Kind of test: MIC, broth-dilution microtiter test (Table III). The format is cell-based. Details: unit not given here. Conditions: bovine isolate. The protocol:
as §1

Test [18] relates to Mycoplasma gallisepticum. Put plainly: MIC, broth-dilution microtiter test (Table III). Also noted: unit not given here. In kind it is cell-based. Here is the method: as §1
For test [19], the system named is Mycoplasma synoviae. Kind of test: MIC, broth-dilution microtiter test (Table III). In kind it is cell-based. Details: unit not given here. The protocol:
as §1

Test [20] deals with Streptococcus pyogenes C203. Kind of test: ED50 in mice with experimental infections (Table IV). The format is in vivo. The note with it: Streptococcus pyogenes, doses given 1 and 4 hours postinfection. The protocol:
The OMT ester derivatives of this invention have shown in vivo antimicrobial activity against experimental bacterial infections caused by gram-positive bacteria. When two doses of test compound were administered to mice with experimental infections, the activity observed was measured as an ED50 value [effective dose in mg/kg to protect 50% of the test animals: see Warren Wick, et al., J. Bacteriol. 81, 233-235 (1961)].
^a mg/kg × 2; doses given 1 and 4 hours postinfection

For test [21], the system named is Pasteurella multocida 22A. Put plainly: MIC, broth-dilution microtiter test (Table III). The format is cell-based. Details: unit not given here. Here is the method:
as §1

Test [22] has as its system Pasteurella multocida 68C. Put plainly: MIC, broth-dilution microtiter test (Table III). The format is cell-based. Details: unit not given here. Here is the method: as §1
In test [23] the test system is Pasteurella haemolytica 22C. Kind of test: MIC, broth-dilution microtiter test (Table III). Also noted: unit not given here. In kind it is cell-based. Here is the method: as §1
The subject of test [24] is Pasteurella multocida 40G. Kind of test: MIC, broth-dilution microtiter test (Table III). The format is cell-based. Details: unit not given here. The protocol:
as §1

Test [25] relates to Pasteurella haemolytica 23C. Kind of test: MIC, broth-dilution microtiter test (Table III). The format is cell-based. Also noted: unit not given here. The protocol: as §1
The test system of test [26] is Pasteurella haemolytica 41D. Put plainly: MIC, broth-dilution microtiter test (Table III). In kind it is cell-based. Details: unit not given here. The protocol: as §1

Like-named read-outs stand apart in the source and are kept apart here. A value given as a limit tells only on which side of the number the result lay.

Take `CCC(=O)OC1C(OC2C(CC=O)CC(C)C(=O)C=CC(C)=CC(COC(C)=O)C(CC)OC(=O)CC(O)C2C)OC(C)C(O)C1N(C)C` (stereo not drawn) [Compound 11]: the “minimal inhibitory concentration (MIC)” value in [1] worked out at 0.5; in test [2], 0.5; in test [3], 4; in [4] it was 4; in test [5], 0.5; in test [6], 1. For the same compound, the “minimal inhibitory concentration (MIC)” value in [7] is reported as 0.5; in test [8], 0.25; in [9], 1; in test [10], 0.5; in [11], 1; in [12], 1. Moreover, the “minimal inhibitory concentration (MIC)” value was 1.56 in test [13]; 50 in test [14]; 6.25 in test [15]; 12.5 in test [16]; 25 in [17]; 0.39 in [18]. Also, the “minimal inhibitory concentration (MIC)” value in [19] is 0.39. Besides, the median effective dose (ED50) – broadly, the midpoint of the dose-response relation – was greater than 150 mg/kg in [20] (C203, oral, read-out: ED50, Oral) and 5.3 mg/kg in [20] (C203, sc, subcutaneous, read-out: ED50, Subcutaneous).
Turning to `CCC1OC(=O)CC(O)C(C)C(OC2OC(C)C(O)C(N(C)C)C2O)C(CC=O)CC(C)C(=O)C=CC(C)=CC1COC(=O)c1ccc2ccccc2c1` (stereo not drawn) [Compound 59], the “minimal inhibitory concentration (MIC)” value is 0.5 in test [1]; 0.5 in test [2]; 2 in [3]; 4 in [4]; 0.5 in test [5]; 0.5 in test [6]. For the same compound, the “minimal inhibitory concentration (MIC)” value amounted to 0.5 in test [7]; 0.125 in test [8]; 0.5 in test [9]; 0.5 in test [10]; 0.5 in [11]; 0.5 in [12]. Further, the “minimal inhibitory concentration (MIC)” value in test [13] was determined as 0.39; in test [14] it was 3.12; in test [21], 12.5; in [15], 0.78; in test [16], 6.25; in test [22], 3.12. The “minimal inhibitory concentration (MIC)” value in test [17] was found to be 3.12; in [23], 12.5; in test [24], 3.12; in test [25], 12.5; in [18], 0.39; in test [19], 1.56. The “minimal inhibitory concentration (MIC)” value in [26] is 12.5.
With `CCC1OC(=O)CC(O)C(C)C(OC2OC(C)C(OC(C)=O)C(N(C)C)C2OC(C)=O)C(CC=O)CC(C)C(=O)C=CC(C)=CC1COC(=O)C(Cl)Cl` (stereo not drawn) [Compound 66, 2',4'-Di-O-acetyl-23-O-dichloroacetyl-OMT], the “minimal inhibitory concentration (MIC)” value in test [1] stood at 0.25; in test [2], 2; in test [3], 1; in test [4], 2; in test [5], 1; in [6], 2. For the same compound, the “minimal inhibitory concentration (MIC)” value turned out to be 1 in test [7]; 0.125 in test [8]; 2 in [9]; 1 in test [10]; 2 in [11]; 1 in test [12]. In addition, the “minimal inhibitory concentration (MIC)” value in [13] is recorded as less than 0.78; in [14], 6.25; in test [21] it was 3.12; in [15] it was 3.12; in test [16], 6.25; in test [22], 3.12. The “minimal inhibitory concentration (MIC)” value in [17] was 3.12; in test [23] it was 25; in test [24], 3.12; in [25], 12.5; in test [18], 1.56; in test [19] it was 1.56. Moreover, in test [26], the “minimal inhibitory concentration (MIC)” value was determined as 25.
Regarding `CCC1OC(=O)CC(O)C(C)C(OC2OC(C)C(O)C(N(C)C)C2OC(C)=O)C(CC=O)CC(C)C(=O)C=CC(C)=CC1COC(=O)Cc1ccc([N+](=O)[O-])cc1` (stereo not drawn) [Compound 64], the “minimal inhibitory concentration (MIC)” value came out at 0.06 in test [1]; 0.25 in [2]; 1 in test [3]; 1 in [4]; 0.125 in test [5]; 0.125 in test [6]. Further, the “minimal inhibitory concentration (MIC)” value in test [7] was 0.125; in test [8], 0.015; in test [9] it was 0.125; in test [10], 0.125; in test [11] it was 0.125; in test [12], 0.125. The “minimal inhibitory concentration (MIC)” value in test [13] is reported as less than 0.05; in test [14], 1.56; in test [21], 1.56; in test [15], 0.78; in test [16], 0.78; in test [22], 1.56. For the same compound, the “minimal inhibitory concentration (MIC)” value in test [17] was 1.56; in test [23], 3.12; in [24] it was 1.56; in test [25], 3.12; in test [18], 0.097; in [19], less than 0.05. Further, the “minimal inhibitory concentration (MIC)” value in test [26] is 3.12.

The values are drawn from patent US4401660A, “Ester derivatives of 5-O-mycaminosyl tylonolide and method of using same” (Eli Lilly and Company, priority 1981, dated 1983).
